Results published in paper PMC9611727, “Optimization of a Novel Mandelamide-Derived Pyrrolopyrimidine Series of PERK Inhibitors” (Pharmaceutics, 2022).

Tests used:
FLT3(N841I) = target: T1, FLT3(N841I) (Homo sapiens, UniProt P36888, N841I); assay: scanMAX kinase panel; format: binding; details: read-out: % Control; for remaining binding at 1 µM: 1000 nM
T1 construct: purchased DiscoverX scanMAX
T1 sequence (P36888 27-993 N841I): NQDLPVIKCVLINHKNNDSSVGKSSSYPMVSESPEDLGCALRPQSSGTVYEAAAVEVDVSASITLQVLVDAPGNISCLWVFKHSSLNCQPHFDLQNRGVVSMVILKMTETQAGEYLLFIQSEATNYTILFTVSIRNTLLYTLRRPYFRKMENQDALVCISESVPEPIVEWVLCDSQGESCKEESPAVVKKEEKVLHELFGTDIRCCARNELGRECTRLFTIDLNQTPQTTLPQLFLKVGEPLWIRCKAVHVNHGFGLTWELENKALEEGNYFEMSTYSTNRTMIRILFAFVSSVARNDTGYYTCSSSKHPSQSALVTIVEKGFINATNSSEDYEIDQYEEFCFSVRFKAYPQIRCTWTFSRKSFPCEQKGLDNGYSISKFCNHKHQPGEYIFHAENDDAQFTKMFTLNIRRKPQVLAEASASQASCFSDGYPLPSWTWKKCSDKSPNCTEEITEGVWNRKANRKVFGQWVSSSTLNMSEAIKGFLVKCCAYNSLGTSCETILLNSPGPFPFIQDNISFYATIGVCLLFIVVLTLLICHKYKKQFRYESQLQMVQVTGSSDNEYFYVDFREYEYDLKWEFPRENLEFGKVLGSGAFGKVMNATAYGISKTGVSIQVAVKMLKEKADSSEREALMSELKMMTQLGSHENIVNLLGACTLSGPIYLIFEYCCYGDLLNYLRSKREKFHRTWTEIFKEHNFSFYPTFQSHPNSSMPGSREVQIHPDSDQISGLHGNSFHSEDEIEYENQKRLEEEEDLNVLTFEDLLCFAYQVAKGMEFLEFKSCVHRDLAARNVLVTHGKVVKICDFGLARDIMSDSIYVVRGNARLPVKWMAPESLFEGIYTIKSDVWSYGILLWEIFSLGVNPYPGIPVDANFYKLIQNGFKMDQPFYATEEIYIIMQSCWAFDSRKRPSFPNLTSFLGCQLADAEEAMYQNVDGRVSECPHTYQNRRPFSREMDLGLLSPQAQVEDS
Excerpt: (§1) Supplemental Table S2. scanMAXSM Kinome Assay Results. Complete tabulated data of all 468 kinases from the panel, including
(§2) 403 wild-type and 65 mutant isoforms. […] Cmpd 11 and Cmpd 24

MAP3K15 = target: T2, MAP3K15 (Homo sapiens, UniProt Q6ZN16); assay: scanMAX kinase panel; format: binding; details: read-out: % Control; for remaining binding at 1 µM: 1000 nM
T2 construct: purchased DiscoverX scanMAX
T2 sequence (Q6ZN16 1-1313): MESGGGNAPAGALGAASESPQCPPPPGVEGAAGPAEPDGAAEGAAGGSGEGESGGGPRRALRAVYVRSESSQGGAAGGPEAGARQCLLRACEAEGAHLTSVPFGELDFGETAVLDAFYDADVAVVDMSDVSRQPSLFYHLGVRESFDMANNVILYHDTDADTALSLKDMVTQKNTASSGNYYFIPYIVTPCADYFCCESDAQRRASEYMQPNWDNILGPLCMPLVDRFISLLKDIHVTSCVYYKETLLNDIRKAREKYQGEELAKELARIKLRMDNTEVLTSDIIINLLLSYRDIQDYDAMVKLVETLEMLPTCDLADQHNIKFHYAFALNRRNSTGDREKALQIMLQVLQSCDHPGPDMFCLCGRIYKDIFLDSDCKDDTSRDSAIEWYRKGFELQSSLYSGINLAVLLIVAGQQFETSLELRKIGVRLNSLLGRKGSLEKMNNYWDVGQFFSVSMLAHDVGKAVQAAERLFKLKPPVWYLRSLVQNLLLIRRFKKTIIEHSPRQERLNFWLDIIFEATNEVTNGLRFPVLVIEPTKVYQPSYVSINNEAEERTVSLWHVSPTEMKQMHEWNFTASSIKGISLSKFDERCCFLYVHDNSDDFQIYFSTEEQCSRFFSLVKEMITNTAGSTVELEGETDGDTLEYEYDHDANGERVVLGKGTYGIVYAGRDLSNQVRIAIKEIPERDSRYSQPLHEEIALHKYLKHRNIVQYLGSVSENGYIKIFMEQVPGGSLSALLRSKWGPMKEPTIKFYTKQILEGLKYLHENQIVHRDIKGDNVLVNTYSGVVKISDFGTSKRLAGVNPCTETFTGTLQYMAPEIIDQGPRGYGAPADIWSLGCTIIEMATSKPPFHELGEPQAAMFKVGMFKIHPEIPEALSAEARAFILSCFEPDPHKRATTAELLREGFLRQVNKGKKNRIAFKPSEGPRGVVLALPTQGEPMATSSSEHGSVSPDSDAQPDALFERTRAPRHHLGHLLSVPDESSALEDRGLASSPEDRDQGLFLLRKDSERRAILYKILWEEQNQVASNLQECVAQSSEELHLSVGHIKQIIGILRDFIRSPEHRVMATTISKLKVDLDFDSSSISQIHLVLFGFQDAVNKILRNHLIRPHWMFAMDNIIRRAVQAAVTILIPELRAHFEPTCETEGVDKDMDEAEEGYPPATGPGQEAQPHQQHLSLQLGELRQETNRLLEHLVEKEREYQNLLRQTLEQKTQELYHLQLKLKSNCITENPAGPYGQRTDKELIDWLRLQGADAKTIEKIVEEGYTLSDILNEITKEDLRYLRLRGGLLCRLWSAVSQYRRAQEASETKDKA
Excerpt: as §1, §2

| SMILES | remaining binding at 1 µM (FLT3(N841I)) | remaining binding at 1 µM (MAP3K15) | remaining binding at 0.1 µM (FLT3(N841I); 100 nM) | remaining binding at 0.1 µM (MAP3K15; 100 nM) |
| --- | --- | --- | --- | --- |
| Cc1nc(N)c2c(-c3ccc(NC(=O)[C@H](O)c4cccc(F)c4)cc3C)cn(C)c2n1 [Compound 24] | 100% | 82% | – | – |
| Cc1cc(NC(=O)[C@H](O)c2cccc(F)c2)ccc1-c1cn(C)c2ncnc(N)c12 [Compound 11, (R)-N-(4-(4-amino-7-methyl-7H-pyrrolo[2,3-d]pyrimidin-5-yl)-3-methylphenyl)-2-(3-fluorophenyl)-2-hydroxy acetamide] | 0.3% | 29% | – | – |
| Cc1nc(N)c2c(-c3ccc(NC(=O)[C@H](O)c4cccc(C(F)(F)F)c4)cc3C)cn(C)c2n1 [Compound 26] | 0% | 99% | 34% | 100% |
